Patent US20060235062A1, “Novel heterocyclic analogs of diphenylethylene compounds” (THERACOS, INC., priority 2002, published 2006)

How the values were obtained:
NF-kB p65 = NF-kB p65 activation in LPS-stimulated RAW cells (ELISA); assay type: cell-based; conditions: 10 μM, 1 μg/ml LPS 15 min, FIG. 15
IL-6 = assay: LPS-induced IL-6 production in RAW cells (ELISA); assay type: cell-based; conditions: RAW cells, 0.1, 1, 10, 50 or 100 pM, FIG. 10
IL-1-beta = assay: LPS-induced IL-1-beta production in RAW cells (ELISA); assay type: cell-based; conditions: RAW cells, 0.1, 1, 10, 50 or 100 pM, FIG. 11
ZDF rats = assay: Antihyperglycemic activity in Zucker diabetic fatty rats; assay type: in vivo
SJL-/J mice = assay: Experimental allergic encephalomyelitis (EAE) in mice; assay type: in vivo; conditions: 200 μg once daily subcutaneous, FIG. 14
TNF-alpha = assay: LPS-induced TNF-alpha production in RAW cells (ELISA); assay type: cell-based; conditions: RAW cells, 0.1, 1, 10, 50 or 100 pM, 1 hour preincubation, LPS 6 hours, FIG. 9
AIA rats = assay: Cancellous bone loss in adjuvant induced arthritic (AIA) rats, MicroCT of right proximal tibia; assay type: in vivo, male Lewis rats
ob/ob mice [1] = assay: Antihyperglycemic activity and serum parameters in ob/ob mice; assay type: in vivo; set-up: decrease in triglyceride as compared to the control / lowering of FFA compared to the control / decrease in the GHb level compared to the control / reduction of serum insulin / reduction of triglycerides / reduction of free fatty acid (FFA) levels: concentration or dose not given beside the values
COX-1 = molecular target: T1, COX-1 (Mus musculus, UniProt P22437); assay: COX-1 activity in RAW cells; assay type: cell-based; conditions: 0.1-100 μM
T1 construct: aliquots used to determine COX-2 and COX-1 activity; endogenous in cells; host or cells: RAW (RAW 264.7) cells
T1 sequence (P22437 27-602): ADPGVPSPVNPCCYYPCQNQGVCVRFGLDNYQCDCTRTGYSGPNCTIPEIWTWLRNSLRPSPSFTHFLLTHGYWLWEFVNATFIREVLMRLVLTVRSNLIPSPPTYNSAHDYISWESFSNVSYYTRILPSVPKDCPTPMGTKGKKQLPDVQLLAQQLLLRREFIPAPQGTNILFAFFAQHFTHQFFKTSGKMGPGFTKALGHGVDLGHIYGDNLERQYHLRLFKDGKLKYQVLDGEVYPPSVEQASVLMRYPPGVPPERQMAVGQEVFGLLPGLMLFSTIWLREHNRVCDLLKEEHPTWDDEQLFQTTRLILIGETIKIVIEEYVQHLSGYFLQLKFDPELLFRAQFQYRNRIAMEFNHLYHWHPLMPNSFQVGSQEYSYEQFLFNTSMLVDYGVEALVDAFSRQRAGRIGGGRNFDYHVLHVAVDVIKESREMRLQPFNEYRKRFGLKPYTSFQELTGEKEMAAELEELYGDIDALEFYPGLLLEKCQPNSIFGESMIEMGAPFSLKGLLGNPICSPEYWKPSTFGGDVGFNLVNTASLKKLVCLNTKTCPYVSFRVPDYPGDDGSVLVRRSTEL
Method: (§1) After 1 hour LPS (0.1 pg/mL) was added and cells were incubated an additional 6 hours. Cell supernatant was then collected, aliquoted and frozen at −70° C., and aliquots used to determine COX-2 and COX-1 activity. Compound 11, but not rosiglitazone, inhibited the activity of COX-2 (as measured by PGE2 production in a 50 μl sample).

COX-2 = molecular target: T2, COX-2 (Mus musculus, UniProt Q05769); assay: LPS-induced COX-2 activity in RAW cells (PGE2 production); assay type: cell-based; conditions: 0.1-100 μM, FIG. 12
T2 sequence (Q05769 18-604): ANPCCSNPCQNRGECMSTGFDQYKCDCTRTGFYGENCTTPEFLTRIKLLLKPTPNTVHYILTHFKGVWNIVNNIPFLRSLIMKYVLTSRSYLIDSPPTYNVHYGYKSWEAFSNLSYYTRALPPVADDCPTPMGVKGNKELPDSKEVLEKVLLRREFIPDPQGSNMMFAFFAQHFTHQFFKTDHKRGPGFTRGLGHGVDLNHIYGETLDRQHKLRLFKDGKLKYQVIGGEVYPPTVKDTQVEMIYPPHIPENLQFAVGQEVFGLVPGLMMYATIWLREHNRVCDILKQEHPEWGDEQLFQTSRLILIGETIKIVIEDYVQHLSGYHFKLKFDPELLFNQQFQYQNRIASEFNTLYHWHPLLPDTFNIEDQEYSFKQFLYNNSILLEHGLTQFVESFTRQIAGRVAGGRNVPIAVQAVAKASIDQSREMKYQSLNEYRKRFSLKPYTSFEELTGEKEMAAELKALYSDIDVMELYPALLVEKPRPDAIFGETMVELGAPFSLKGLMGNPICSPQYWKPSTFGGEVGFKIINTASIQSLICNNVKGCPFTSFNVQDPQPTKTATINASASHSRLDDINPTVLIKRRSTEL
Method: as §1

ob/ob mice [2] = assay: Liver enzymes AST/GOT and ALT/GPT in sera of ob/ob mice; assay type: in vivo; conditions: 21 days, orally 50 mg/kg, vs untreated or troglitazone-treated mice
[3] = after fourteen days of treatment, p<0.05 vs vehicle
[4] = ob/ob mice, 50 mg/kg, 14 days, FIG. 17A

SMILES: COC(=O)C(=Cc1cc(OC)cc(OC)c1)c1ccc(Oc2ccc(CC3SC(=O)NC3=O)cc2)cc1 (centres unmarked) [Compound 11, 3-(3,5-Dimethoxyphenyl)-2-{4-[4-(2,4-dioxothiazolidin-5-ylmethyl)-phenoxy]-phenyl}-acrylic acid methyl ester]
- inhibition of the activation of NF-kB (p65) (NF-kB p65): inhibited
- inhibition of LPS-induced IL-6 production (IL-6): better inhibitor of IL-6 than rosiglitazone
- inhibition of LPS-induced IL-1-beta production (IL-1-beta): inhibited IL-1-beta better than rosiglitazone
- glucose levels (ZDF rats): normalizes glucose levels
- more weight gained than control animals (ZDF rats; 50 mg/kg oral once daily, 8 to 9 days): 13%
- decrease in blood glucose levels (ZDF rats; 50 mg/kg oral once daily, 8 to 9 days, FIG. 21): 50 % vs baseline
- amelioration of EAE (clinical score) (SJL-/J mice): highly effective
- inhibition of LPS-induced TNF-alpha production (TNF-alpha): better inhibitor of TNF-alpha than rosiglitazone
- less cancellous bone lost (AIA rats; AIA rats, treated vs vehicle): ~50%
- C.Th (AIA rats; right proximal tibia): 186 ± 25 μm
- Conn. Dens (AIA rats; right proximal tibia): 38.3 ± 19.7 l/mm3
- SMI (0-3) (AIA rats; right proximal tibia): 2.8 ± 0.3
- Tb.N (AIA rats; right proximal tibia): 2.6 ± 0.5 l/mm
- BV/TV (AIA rats; right proximal tibia, compound 11 50 mg/kg oral, etanercept 1.67 mg/kg i.p., once daily): 13.7 ± 4.7%
- reduction of free fatty acid (FFA) levels (ob/ob mice [1]; [3]): 33%
- reduction of serum insulin (ob/ob mice [1]; [3]): 58%
- reduction of triglycerides (ob/ob mice [1]; [3]): 65%
- glycosylated hemoglobin after treatment (ob/ob mice [1]; after fourteen days of treatment, reduced from 5.2%, p=0.15, FIG. 18): 3.8%
- dose response of glucose lowering (ob/ob mice [1]; ob/ob mice (n=8), three different doses, FIG. 19): dose dependent glucose lowering effect
- weight gain in treated and control animals (ob/ob mice [1]; ob/ob mice, 50 mg/kg oral once daily, 8 to 9 days): similar
- decrease in blood glucose levels (ob/ob mice [1]; ob/ob mice, 50 mg/kg oral once daily, 8 to 9 days, FIG. 21): 59 % vs. baseline
- normalization of blood glucose levels (ob/ob mice [1]; [4]): normalized by three days
- time to significant decrease of blood glucose levels (ob/ob mice [1]; [4]): ≤ 48 h
- body weight compared to vehicle treated group (ob/ob mice [1]; ob/ob mice, 50 mg/kg, 14 days, FIG. 17B): did not see any increase
- drop of serum insulin (ob/ob mice [1]; ob/ob mice, after 10 days of treatment, FIG. 6A): 58%
- lowering of FFA compared to the control (ob/ob mice [1]; ob/ob mice, after 10 days of treatment, FIG. 6C): 33%
- decrease in the GHb level compared to the control (ob/ob mice [1]; ob/ob mice, after 14 days of treatment, FIG. 6D): 1.3%
- decrease in triglyceride as compared to the control (ob/ob mice [1]; ob/ob mice, after treatment for 10 days, FIG. 6B): 65%
- drop in blood glucose level (ob/ob mice [1]; ob/ob mice, oral 50 mg/kg, 15 days, FIG. 2A): 62%
- body weight, control vs treatment group (ob/ob mice [1]; ob/ob mice, oral 50 mg/kg, FIG. 2B): no significant increase
- in vivo potency relative to rosiglitazone on a mole-per-mole basis (more potent) (ob/ob mice [1]; ob/ob mice, same glucose lowering at 10 mg/kg): 46%
- blood glucose level (db/db mice; db/db male mice, oral 50 mg/kg, 15 days, FIG. 1A): substantial reduction
- decrease in blood glucose levels (db/db mice; db/db mice, 50 mg/kg oral once daily, 8 to 9 days, FIG. 21): 32 % vs. baseline
- blood glucose lowering effect (db/db mice; db/db mice, 50 mg/kg/day orally, 14 days, FIG. 16A): dramatic, comparable blood glucose lowering effects
- drop in triglyceride levels (db/db mice; db/db mice, after 15 days of treatment, FIG. 5A): 24%
- drop in FFA levels (db/db mice; db/db mice, after 15 days of treatment, FIG. 5B): 34%
- drop in the GHb level (db/db mice; db/db mice, after 15 days of treatment, FIG. 5C): 0.7%
- increase in the serum leptin level compared to the control group (db/db mice; db/db mice, after 15 days of treatment, FIG. 5D): 23 °/a
- glucose lowering effect, maximal at 24 hrs (db/db mice; db/db mice, single oral dose 50 mg/kg, at 24 hrs): 23 % of 0 min
- duration of effect on blood glucose (db/db mice; db/db mice, single oral dose, FIG. 4): ≥ 24 h
- inhibition of COX-1 activity (COX-1): Neither compound inhibited
- inhibition of COX-2 activity (PGE2 production) (COX-2): inhibited
- AST level (ob/ob mice [2]; FIG. 7A): not elevated
- ALT level (ob/ob mice [2]; FIG. 7B): did not elevate
